From PubChem BioAssay (NCI)
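Cultured in 96-well plates, cells were exposed to test compound for 48 hours across five concentrations. The concentration for 50% growth inhibition is given as GI50. TGI denotes the concentration required for complete inhibition of growth.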

How the values were obtained:
Experiment in all cases: NCI-60 cell line screen, 48 h
SN12C renal = system: SN12C renal
DU-145 prostate = system: DU-145 prostate
SF-539 CNS = system: SF-539 CNS
M14 melanoma = system: M14 melanoma
OVCAR-8 ovarian = system: OVCAR-8 ovarian
U251 CNS = system: U251 CNS
KM12 colon = system: KM12 colon
NCI/ADR-RES ovarian = system: NCI/ADR-RES ovarian
K-562 leukemia = system: K-562 leukemia
NCI-H226 lung = system: NCI-H226 lung

Structure (SMILES)	GI50 (SN12C renal)	TGI (SN12C renal)	GI50 (DU-145 prostate)	TGI (DU-145 prostate)	GI50 (SF-539 CNS)	TGI (SF-539 CNS)	GI50 (M14 melanoma)	TGI (M14 melanoma)	GI50 (OVCAR-8 ovarian)	TGI (OVCAR-8 ovarian)	GI50 (U251 CNS)	TGI (U251 CNS)	GI50 (KM12 colon)	TGI (KM12 colon)	GI50 (NCI/ADR-RES ovarian)	TGI (NCI/ADR-RES ovarian)	GI50 (K-562 leukemia)	TGI (K-562 leukemia)	GI50 (NCI-H226 lung)	TGI (NCI-H226 lung)
O=P(O)(O)C(O)(Cn1ccnc1)P(=O)(O)O	> 57.7 µM	> 100 µM	> 72.2 µM	> 100 µM	20.3 µM	> 100 µM	> 53.3 µM	> 100 µM	> 92.3 µM	> 100 µM	> 59.1 µM	> 100 µM	> 79.3 µM	> 100 µM	> 64.1 µM	> 100 µM	> 100 µM	> 100 µM	> 75 µM	> 100 µM
C=CCOc1c(Br)cc(Br)cc1Br	30 µM	> 100 µM	58.5 µM	> 100 µM	20.9 µM	> 100 µM	19.6 µM	> 100 µM	28.2 µM	> 100 µM	8.28 µM	> 100 µM	14.1 µM	45.7 µM	17.3 µM	> 100 µM	7.92 µM	> 100 µM	24.8 µM	> 100 µM
Oc1ccc(Cc2ccccc2)c2cccnc12	2.61 µM	> 100 µM	2.58 µM	> 100 µM	1.66 µM	19.2 µM	1.51 µM	10.6 µM	2.35 µM	> 100 µM	0.999 µM	37.7 µM	2.07 µM	27 µM	0.49 µM	13.3 µM	0.836 µM	> 100 µM	13.8 µM	67.5 µM
CC(C)(C)c1nc2c(o1)C(=Nc1ccc(F)cc1)c1ccccc1C2=O	–	23.8 µM	–	29.4 µM	–	14.2 µM	–	9.35 µM	–	> 61.2 µM	–	19.7 µM	–	52.5 µM	–	> 56.7 µM	–	> 100 µM	–	34.3 µM
COc1ccc2c(-c3cc4ccccc4o3)cc(=O)oc2c1	–	> 100 µM	–	> 100 µM	–	49.6 µM	–	> 100 µM	–	> 100 µM	–	> 96 µM	–	> 100 µM	–	> 100 µM	–	> 100 µM	–	> 100 µM
CNC(=O)c1cn(C[C@H](F)CCc2ccc(NC(=O)Cc3cc(OC4CC(F)(F)C4)cc(C)n3)nn2)nn1	–	> 100 µM	> 100 µM	> 100 µM	> 100 µM	> 100 µM	> 100 µM	> 100 µM	> 100 µM	> 100 µM	0.102 µM	> 100 µM	> 100 µM	> 100 µM	> 100 µM	> 100 µM	> 100 µM	> 100 µM	–	> 100 µM
COc1ccccc1C(=O)c1ccc2ccccc2c1	–	> 100 µM	–	> 100 µM	–	25.8 µM	–	58.1 µM	–	75.9 µM	–	> 100 µM	–	33.2 µM	–	> 100 µM	–	> 100 µM	–	> 100 µM
C[C@H]1CCC/C=C/[C@@H]2C[C@H](N)C[C@H]2[C@H](O)/C=C/C(=O)O1	> 100 µM	> 100 µM	> 100 µM	> 100 µM	> 100 µM	> 100 µM	> 100 µM	> 100 µM	> 100 µM	> 100 µM	> 100 µM	> 100 µM	71.4 µM	> 100 µM	> 100 µM	> 100 µM	> 100 µM	> 100 µM	> 100 µM	> 100 µM
NCCN1CCN(c2nccc(-c3ccc4ccccc4c3)n2)CC1	1.71 µM	3.81 µM	1.85 µM	3.42 µM	1.79 µM	3.28 µM	1.89 µM	3.54 µM	2.25 µM	5.6 µM	1.85 µM	3.52 µM	1.85 µM	3.48 µM	2.48 µM	6.71 µM	2.09 µM	4.09 µM	2.03 µM	5.66 µM
Cc1noc(C)c1-c1ccc2[nH]c(=O)n3c2c1OC[C@@H]3c1ccccn1	21.4 µM	> 100 µM	> 64.3 µM	> 100 µM	2.05 µM	> 100 µM	0.803 µM	> 100 µM	11 µM	> 100 µM	30.9 µM	> 100 µM	> 27.8 µM	> 100 µM	2.33 µM	> 100 µM	0.959 µM	> 100 µM	2.22 µM	> 100 µM
CC1=C(C)C(=O)O[C@@H]([C@](C)(O)[C@]2(O)CC[C@@]3(O)[C@@H]4C[C@H]5O[C@]56CC=CC(=O)[C@]6(C)[C@H]4CC[C@]23C)C1	0.411 µM	3.63 µM	0.519 µM	10.9 µM	0.272 µM	1.62 µM	0.101 µM	1.67 µM	0.231 µM	4.86 µM	0.483 µM	2.23 µM	0.266 µM	1.57 µM	2.76 µM	> 63.8 µM	0.0907 µM	> 27.8 µM	0.453 µM	4.49 µM
CN(C)CCNC(=O)Nc1c(C#N)[n+]([O-])c2cc(Cl)c(Cl)cc2[n+]1[O-]	17.2 µM	> 100 µM	25.4 µM	> 100 µM	18.9 µM	47.3 µM	21.9 µM	> 100 µM	21.4 µM	> 100 µM	14.5 µM	> 100 µM	13.3 µM	43.1 µM	> 100 µM	> 100 µM	29.3 µM	> 100 µM	22.3 µM	> 100 µM
Clc1ccc(OCc2nnc3n2N=C(c2ccc(Cl)cc2Cl)CS3)c(Cl)c1	14.2 µM	32.3 µM	33.6 µM	> 100 µM	18.7 µM	38.7 µM	22.7 µM	51 µM	27.7 µM	66.2 µM	18.7 µM	46.8 µM	25.5 µM	> 100 µM	27 µM	91.6 µM	33.4 µM	> 100 µM	17.6 µM	43.2 µM
